# Measured values from patent publication US8778937B2, “Benzimidazole boronic acid derivatives as PI3 kinase inhibitors” (GlaxoSmithKline LLC, priority 2011, dated 2014).
# Key:
# [1] = tested on: phosphorylation of AKT in MDA-MB-468 tumor cells; assay: Inhibition of phosphorylation of AKT (Ser473, MSD) in PTEN deficient tumor cell line MDA-MB-468; format: cell-based; conditions: Homo sapiens, 0.5 h; MDA-MB-468 cells, 30 minutes compound treatment, Ser473-pAKT normalized to total AKT
# Experimental: Cellular Assays—Inhibition of Phosphorylation of AKT in PTEN Deficient Tumor Cell Line MDA-MB-468
# Compounds were evaluated for their ability to inhibit downstream phosphorylation of AKT in MDA-MB-468 tumor cells. Breast cancer cells were plated, incubated for approximately 16-20 hours and then treated with compound for 30 minutes. Final DMSO concentration on all cells was 0.15%. The cells were washed with Tris buffer and lysed in MesoScale Discovery (MSD) lysis buffer containing protease and phosphatase inhibitors (included in MSD kit). MSD Ser473-AKT duplex plates (Cat # MS6000) were used according to the manufacturer's instructions and plates were read on a SECTOR™ Imager 6000 using MSD Workbench software. For analysis of the Ser473-pAKT concentration response curves, the data was normalized using the corresponding total AKT value (sum of pAKT and AKT signal) and plotted as the percent of the DMSO-treated control values. The data was fit in Graphpad Prism version 4 for Windows (Graphpad Software, San Diego, Calif.).
# The compounds listed in Table 2 were tested generally according to the assays described herein. Table 2 lists the IC50 values for either an experimental run or an average of two or more experimental runs with the examples shown.
# MDA-MB-468 = assay: Cell growth inhibition in PTEN-deficient cell line MDA-MB-468, anchorage independent, Alamar Blue; format: cell-based; conditions: Homo sapiens, 144 h, MDA-MB-468, anchorage independent (soft agar), 6 days incubation, read-out: Prolif EC50 (nM) MDA-MB-468
# Experimental: Cellular Assays—Cell Growth Inhibition in PTEN-Deficient Cell Line MDA-MB-468
# PTEN deficient tumor cell lines (MDA-MB-468) were cultured generally according to instructions supplied by cell culture supplier American Type Culture Collection, Manassas, Va., with 10% fetal bovine serum at 5% CO2 and 37° C. Cells were seeded into either a T-75 or a T-175 flask 3-4 days prior to 96-well assay plating such that the flasks were approximately 70-80% confluent of the time of harvest. Cells were harvested using 0.25% trypsin-EDTA (Invitrogen #25200056). Trypan Blue exclusion staining was used to determine cell number.
# Viable cells were plated in clear, flat bottom 96-well plates (BD #353075) under anchorage independent conditions at 2,000-10,000 cells per well depending on the cell line. To generate anchorage independent growth conditions, a 5% agar stock solution in water was made and autoclaved to melt and sterilize. From the 5% agar solution, a 0.6% agar/media+10% fetal bovine serum (FBS) solution was made to generate a bottom agar layer in the plates to prevent cell attachment. Seventy five microliters per well of the 0.6% agar-media solution was added to the plates. After solidification, a cell solution of 266,870 to 1,334,022 cells (depending on the cell line) in 10 ml of 0.3% agar/media+10% FBS was made and 75 μl of the cell/media/agar suspension was added to the plates. After the cell layer solidified, 50 μl of media+10% FBS was added to the top of the cells. A 0.3% Brij 35 (Sigma B4184) solution in media+10% FBS was added to column 12 as a background subtraction control. The cells were incubated overnight at 5% CO2 and 37° C. The next day one plate of cells was processed at the time of compound addition to quantify the starting number of cells (T=0 or T0).
# To generate the compound titration plates, 15 μl of a 2 mM or 20 μl of a 20 mM solution of the compound of example 31 was diluted in clear bottom polypropylene 96-well plate (BD #351190) using a 10 point, 3-fold titration or a 20 point 2-fold titration, respectively. Three hundred microliters of media was added to the compound dilutions. Ten microliters per well of the serial dilutions was added to the cells and the plates incubated for 6 days at 5% CO2 and 37° C. The final concentration of DMSO in all wells was 0.15% and the highest final concentration of the compound of example 31 was 3.7 μM or 30.7 μM.
# Following the 6-day incubation, 20 μl of Alamar Blue (Invitrogen #DAL1100) was added to the cells, incubated at 5% CO2 and 37° C. for 6 hours and the plates read on a Spectramax (Gemini EM) at 530 nm (excitation) and 590 nm (emission) with the auto cut-off disabled. For analysis of cell growth inhibition dose response curves, the data was plotted as the percent of the DMSO-treated control samples (DMSO samples set to 100%). The cellular response was determined for compounds and control compounds by fitting the concentration response with a 4 parameter curve fit using XLfit software and determining the concentration that inhibits 50% of the Ymax-Ymin window (EC50). The EC50 is the midpoint of active compound effect window (between Ymax plateau and Ymin plateau of compound) and represents the concentration of the compound of example 31 where 50% of its maximal effect is observed. Values from wells containing 0.3% Brij 35 (under anchorage independent conditions) were subtracted from all samples for background correction.
# The compounds listed in Table 3 were tested generally according to the assays described herein. Table 3 lists the EC50 values for either an experimental run or an average of two or more experimental runs with the examples shown.
SMILES,IC50 [1] [nM],EC50 (MDA-MB-468) [nM]
"Cc1c(Cn2c(CF)nc3c(B(O)O)cc(N4CCOCC4)cc32)cccc1C(F)(F)F [Example 16, (2-(fluoromethyl)-1-(2-methyl-3-(trifluoromethyl)benzyl)-6-morpholino-1H-benzo[d]imidazol-4-yl)boronic acid]",19.1,21.5
"Cc1c(Cn2c(C3CC3)nc3c(B(O)O)cc(N4CCOCC4)cc32)cccc1C(F)(F)F [Example 23, (2-cyclopropyl-1-(2-methyl-3-(trifluoromethyl)benzyl)-6-morpholino-1H-benzo[d]imidazol-4-yl)boronic acid]",56.2,126
"Cc1c(Cn2c(CO)nc3c(B(O)O)cc(N4CCOCC4)cc32)cccc1C(F)(F)F [Example 18, (2-(hydroxymethyl)-1-(2-methyl-3-(trifluoromethyl)benzyl)-6-morpholino-1H-benzo[d]imidazol-4-yl)boronic acid]",6.35,13.5
"Cc1cccc(Cn2c(C)nc3c(B(O)O)cc(N4CCOCC4)cc32)c1 [Example 10, (2-methyl-1-(3-methylbenzyl)-6-morpholino-1H-benzo[d]imidazol-4-yl)boronic acid]",672,1880
"Cc1nc2c(B(O)O)cc(N3CCOCC3)cc2n1Cc1cccc(Cl)c1 [Example 13, (1-(3-chlorobenzyl)-2-methyl-6-morpholino-1H-benzo[d]imidazol-4-yl)boronic acid]",105,246
"Cc1nc2c(B(O)O)cc(N3CCOCC3)cc2n1Cc1cccc2ccccc12 [Example 6, (2-methyl-6-morpholino-1-(naphthalen-1-ylmethyl)-1H-benzo[d]imidazol-4-yl)boronic acid]",78.2,22.3
Cc1nc2c(B(O)O)cc(N3CCOCC3)cc2n1Cc1cccc2ccsc12 [Example 9],65.8,88.2
"Cc1cccc(Cn2c(C)nc3c(B(O)O)cc(N4CCOCC4)cc32)c1C [Example 7, (1-(2,3-dimethylbenzyl)-2-methyl-6-morpholino-1H-benzo[d]imidazol-4-yl)boronic acid]",45.6,18.3
"Cc1c(Cl)cccc1Cn1cnc2c(B(O)O)cc(N3CCOCC3)cc21 [Example 15, (1-(3-chloro-2-methylbenzyl)-6-morpholino-1H-benzo[d]imidazol-4-yl)boronic acid]",7.95,60
"Cc1c(Cl)cccc1Cn1c(C)nc2c(B(O)O)cc(N3CCOCC3)cc21 [Example 5, (1-(3-chloro-2-methylbenzyl)-2-methyl-6-morpholino-1H-benzo[d]imidazol-4-yl)boronic acid]",8.97,6.7
"Cc1c(Cl)cccc1Cn1c(CF)nc2c(B(O)O)cc(N3CCOCC3)cc21 [Example 17, (1-(3-chloro-2-methylbenzyl)-2-(fluoromethyl)-6-morpholino-1H-benzo[d]imidazol-4-yl)boronic acid]",14.5,17.8
"Cc1c(Cn2c(C(F)F)nc3c(B(O)O)cc(N4CCOCC4)cc32)cccc1C(F)(F)F [Example 20, (2-(difluoromethyl)-1-(2-methyl-3-(trifluoromethyl)benzyl)-6-morpholino-1H-benzo[d]imidazol-4-yl)boronic acid]",40.1,39.8
"Cc1c(Cn2c(C)nc3c(B(O)O)cc(N4CCOCC4)cc32)cccc1C(F)(F)F [Example 4, (2-methyl-1-(2-methyl-3-(trifluoromethyl)benzyl)-6-morpholino-1H-benzo[d]imidazol-4-yl)boronic acid]",18.7,11.1
"Cc1c(Cl)cccc1Cn1c(C(F)F)nc2c(B(O)O)cc(N3CCOCC3)cc21 [Example 19, (1-(3-chloro-2-methylbenzyl)-2-(difluoromethyl)-6-morpholino-1H-benzo[d]imidazol-4-yl)boronic acid]",70.9,31.5
"Cc1c(Cn2cnc3c(B(O)O)cc(N4CCOCC4)cc32)cccc1C(F)(F)F [Example 14, (1-(2-methyl-3-(trifluoromethyl)benzyl)-6-morpholino-1H-benzo[d]imidazol-4-yl)boronic acid]",24.4,62.8
"Cc1nc2c(B(O)O)cc(N3CCOCC3)cc2n1Cc1ccccc1Cl [Example 12, (1-(2-chlorobenzyl)-2-methyl-6-morpholino-1H-benzo[d]imidazol-4-yl)boronic acid]",1490,3580
"Cc1ccccc1Cn1c(C)nc2c(B(O)O)cc(N3CCOCC3)cc21 [Example 11, (2-methyl-1-(2-methylbenzyl)-6-morpholino-1H-benzo[d]imidazol-4-yl)boronic acid]",227,1140
"Cc1nc2c(B(O)O)cc(N3CCOCC3)cc2n1Cc1cccc(Cl)c1Cl [Example 8, (1-(2,3-dichlorobenzyl)-2-methyl-6-morpholino-1H-benzo[d]imidazol-4-yl)boronic acid]",61,42
"Cc1c(Cl)cccc1Cn1c(C(F)(F)F)nc2c(B(O)O)cc(N3CCOCC3)cc21 [Example 21, (1-(3-chloro-2-methylbenzyl)-6-morpholino-2-(trifluoromethyl)-1H-benzo[d]imidazol-4-yl)boronic acid]",92.9,130
"Cc1c(Cn2c(C(C)C)nc3c(B(O)O)cc(N4CCOCC4)cc32)cccc1C(F)(F)F [Example 22, (2-isopropyl-1-(2-methyl-3-(trifluoromethyl)benzyl)-6-morpholino-1H-benzo[d]imidazol-4-yl)boronic acid]",74.6,161
